Earlier results on eight compounds are cited in article PMC12394750, “2H-1,4-Benzoxazin-3(4H)-one linked 1,2,3-triazole derivatives and their study on inducing DNA damage in tumor cells” (Frontiers in Pharmacology, 2025).

Where two headings read alike, the source gives them in different places.

One data set relates to MCF-7 cells. Also noted: method as in Nagavelli et al., 2016. Conditions: ref Nagavelli et al., 2016; cited from earlier work.
The subject of another data set is HeLa cells. Details: method as in Nagavelli et al., 2016. The conditions noted are these: ref Nagavelli et al., 2016; cited from earlier work.
Data set [1] addresses mineralocorticoid receptor. Also noted: method as in Hasui et al., 2011. Conditions: ref Hasui et al., 2011; read-out: Mineralocorticoid receptor antagonist IC50; cited from earlier work.
Data set [2] concerns A549 cell. Details: method as in Zhou et al., 2014. Conditions: ref Zhou et al., 2014; read-out: Inhibition of A549 cell proliferation, IC50; cited from earlier work.
Data set [3] has as its system A549 cell. The conditions noted are these: Tummatorn's team, no reference given; read-out: A549 cell proliferation, IC50; cited from earlier work.
For a further data set, the system named is A549 lung cancer cells. Details: method as in Han et al., 2024. The conditions noted are these: ref Han et al., 2024; cited from earlier work.
Another data set concerns Jurkat cells. Details: method as in Pokhodylo et al., 2022. Conditions: ref Pokhodylo et al., 2022; cited from earlier work.
In the next data set the test system is EGFR. Details: method as in Sagam et al., 2024. Conditions: ref Sagam et al., 2024; read-out: EGFR inhibitory activity, IC50; cited from earlier work.
For another data set, the system named is A549 cancer cells. Also noted: method as in Feng et al., 2010. Conditions: ref Feng et al., 2010; cited from earlier work.
Another data set relates to DLD-1 cancer cells. Details: method as in Feng et al., 2010. Conditions: ref Feng et al., 2010; cited from earlier work.
A further data set has as its system MV4-11 cancer cells. Details: method as in Feng et al., 2010. Conditions: ref Feng et al., 2010; cited from earlier work.

For `COc1cccc(-c2ccc3c(c2)OCC(=O)N3Cc2cn(-c3cc(Cl)cc(Cl)c3)nn2)c1` [compound 5b], in the data set with MCF-7 cells, the “Cytotoxicity against MCF-7, IC50” value was 17.08 µg/mL. The “Cytotoxicity against HeLa, IC50” value in the data set with HeLa cells was 15.38 µg/mL.

As to `Cc1cc(F)ccc1-n1nc(C(F)(F)F)cc1-c1ccc2c(c1)NC(=O)CO2` [compound 14n], in data set [1], the IC50 is 41 nM.

Regarding `COc1cc(/C=C/C(=O)c2ccc3c(c2)NC(=O)CO3)cc(OC)c1` [compound 3c], the IC50 with A549 cell [2] was 3290 nM.

For the compound `Fc1ccc2c(c1)C1=Nc3ccc(Br)cc3C1CN2Cc1cn(Cc2cccc(Cl)c2)nn1` (stereo not drawn) [compound 11l], the IC50 in the data set with A549 cell [3] was 3010 nM.

`C#CCCC(=O)OC1CC2[C@@]3(C)CCC(OC(=O)CCc4cn(CC(=O)OC)nn4)C(C)(C)C3CC[C@@]2(C)[C@]2(C)CCC([C@](C)(O)CCCC(C)(C)OC)C12` (stereo partly drawn) [compound 6a]: the “Inhibitory activity against A549” value in the data set with A549 lung cancer cells is reported as “strong inhibitory activity”.

As to `Cc1c(C(=O)Nc2ccc(SC#N)cc2)nnn1-c1ccc(C(C)C)cc1` [compound 4a], in the data set on Jurkat cells, the DNA damage result is on record as “induce DNA damage” and the Mitochondrial membrane potential result was “reduce mitochondrial membrane potential”.

In the case of `O=C(Cn1nnc(CCN2C(=O)COc3ccccc32)n1)Nc1ccc(Cl)cc1` [compound 12g], in the data set on EGFR, the IC50 is 460 nM.

With `O=C1COc2ccc(-c3[nH]c(-c4ccc(C(F)(F)F)cc4)nc3-c3ccccc3)cc2N1` [compound 9c], the “Viability of A549 cancer cells” value in the data set on A549 cancer cells is listed as “significantly reduced”. For the same compound, the “Viability of DLD-1 cancer cells” value with DLD-1 cancer cells is listed as “significantly reduced”. Besides, in the data set on MV4-11 cancer cells, the “Viability of MV4-11 cancer cells” value is on record as “significantly reduced”.
